# Key:
# Assay in all cases: Tumor-associated kinase inhibition test
# Assay type in all cases: biochemical
# Conditions in all cases: read-out: Inhibitory rate (%)
# [1] = molecular target: T1, PIP5K1α(h) (Homo sapiens, UniProt Q99755)
# T1 construct: purchased Eurofins Pharma Discovery Services UK Limited (contract assay)
# Excerpt: (§1) Eurofins Pharma Discovery Services UK Limited completed and reported this experiment.
# [2] = molecular target: T2, PKCη(h) (Homo sapiens, UniProt P24723)
# T2 construct: purchased Eurofins Pharma Discovery Services UK Limited
# Excerpt: as §1
# [3] = molecular target: T3, DYRK2(h) (Homo sapiens, UniProt Q92630)
# T3 construct: purchased Eurofins Pharma Discovery Services UK Limited (contract testing)
# Excerpt: as §1
# [4] = molecular target: T4, BTK(h) (Homo sapiens, UniProt Q06187)
# T4 construct: purchased Eurofins Pharma Discovery Services UK Limited (contract assay service)
# Excerpt: as §1
# [5] = molecular target: T5, mTOR/FKBP12(h) (Homo sapiens, UniProt P42345)
# T5 construct: purchased Eurofins Pharma Discovery Services UK Limited
# Excerpt: as §1
# [6] = molecular target: T6, NEK2(h) (Homo sapiens, UniProt P51955)
# T6 construct: purchased Eurofins Pharma Discovery Services UK Limited
# Excerpt: as §1
# [7] = molecular target: T7, PAR-1Bα(h) (Homo sapiens, UniProt Q7KZI7)
# T7 construct: purchased Eurofins Pharma Discovery Services UK Limited
# Excerpt: as §1
# [8] = molecular target: T8, Abl(T315I)(h) (Homo sapiens, UniProt P00519, T315I)
# T8 construct: purchased Eurofins Pharma Discovery Services UK Limited (contract assay service)
# Excerpt: as §1
# [9] = molecular target: T9, PIP4K2α(h) (Homo sapiens, UniProt P48426)
# T9 construct: purchased Eurofins Pharma Discovery Services UK Limited (contract assay)
# Excerpt: as §1
# [10] = molecular target: T10, Ros(h) (Homo sapiens, UniProt P08922)
# T10 construct: purchased Eurofins Pharma Discovery Services UK Limited
# Excerpt: as §1
# [11] = molecular target: T11, PKBβ(h) (Homo sapiens, UniProt P31751)
# T11 construct: purchased Eurofins Pharma Discovery Services UK Limited
# Excerpt: as §1
# [12] = molecular target: T12, PIP5K1γ(h) (Homo sapiens, UniProt O60331)
# T12 construct: purchased Eurofins Pharma Discovery Services UK Limited (contract assay)
# Excerpt: as §1
# [13] = molecular target: T13, PKA(h) (Homo sapiens, UniProt P17612)
# T13 construct: purchased Eurofins Pharma Discovery Services UK Limited
# Excerpt: as §1
# [14] = molecular target: T14, Rsk2(h) (Homo sapiens, UniProt P51812)
# T14 construct: purchased Eurofins Pharma Discovery Services UK Limited
# Excerpt: as §1
# [15] = molecular target: T15, MKK6(h) (Homo sapiens, UniProt P52564)
# T15 construct: purchased Eurofins Pharma Discovery Services UK Limited
# Excerpt: as §1
# [16] = molecular target: T16, PKCι(h) (Homo sapiens, UniProt P41743)
# T16 construct: purchased Eurofins Pharma Discovery Services UK Limited
# Excerpt: as §1
# [17] = molecular target: T17, MARK1(h) (Homo sapiens, UniProt Q9P0L2)
# T17 construct: purchased Eurofins Pharma Discovery Services UK Limited
# Excerpt: as §1
# [18] = molecular target: T18, PI3Kinase(p120γ)(h) (Homo sapiens, UniProt P48736)
# T18 construct: purchased Eurofins Pharma Discovery Services UK Limited (contract assay)
# Excerpt: as §1
# [19] = molecular target: T19, Fyn(h) (Homo sapiens, UniProt P06241)
# T19 construct: purchased Eurofins Pharma Discovery Services UK Limited (contract testing)
# Excerpt: as §1
# [20] = molecular target: T20, cSRC(h) (Homo sapiens, UniProt P12931)
# T20 construct: purchased Eurofins Pharma Discovery Services UK Limited (contract testing)
# Excerpt: as §1
# [21] = molecular target: T21, PI3KC2γ(h) (Homo sapiens, UniProt O75747)
# T21 construct: purchased Eurofins Pharma Discovery Services UK Limited (contract assay)
# Excerpt: as §1
# [22] = molecular target: T22, PKCθ(h) (Homo sapiens, UniProt Q04759)
# T22 construct: purchased Eurofins Pharma Discovery Services UK Limited
# Excerpt: as §1
# [23] = molecular target: T23, CK2(h) (Homo sapiens, UniProt P68400)
# T23 construct: purchased Eurofins Pharma Discovery Services UK Limited (contract testing)
# Excerpt: as §1
# [24] = molecular target: T24, Rsk1(h) (Homo sapiens, UniProt Q15418)
# T24 construct: purchased Eurofins Pharma Discovery Services UK Limited
# Excerpt: as §1
# [25] = molecular target: T25, CaMKK2(h) (Homo sapiens, UniProt Q96RR4)
# T25 construct: purchased Eurofins Pharma Discovery Services UK Limited (contract assay service)
# Excerpt: as §1
# [26] = molecular target: T26, PRK2(h) (Homo sapiens, UniProt Q16513)
# T26 construct: purchased Eurofins Pharma Discovery Services UK Limited
# Excerpt: as §1
# [27] = molecular target: T27, FAK(h) (Homo sapiens, UniProt Q05397)
# T27 construct: purchased Eurofins Pharma Discovery Services UK Limited (contract testing)
# Excerpt: as §1
# [28] = molecular target: T28, PKCδ(h) (Homo sapiens, UniProt Q05655)
# T28 construct: purchased Eurofins Pharma Discovery Services UK Limited
# Excerpt: as §1
# [29] = molecular target: T29, CHK1(h) (Homo sapiens, UniProt O14757)
# T29 construct: purchased Eurofins Pharma Discovery Services UK Limited (contract assay service)
# Excerpt: as §1
# [30] = molecular target: T30, Flt3(h) (Homo sapiens, UniProt P36888)
# T30 construct: purchased Eurofins Pharma Discovery Services UK Limited (contract testing)
# Excerpt: as §1
# [31] = molecular target: T31, PRAK(h) (Homo sapiens, UniProt Q8IW41)
# T31 construct: purchased Eurofins Pharma Discovery Services UK Limited
# Excerpt: as §1
# [32] = molecular target: T32, MST2(h) (Homo sapiens, UniProt Q13188)
# T32 construct: purchased Eurofins Pharma Discovery Services UK Limited
# Excerpt: as §1
# [33] = molecular target: T33, EphB4(h) (Homo sapiens, UniProt P54760)
# T33 construct: purchased Eurofins Pharma Discovery Services UK Limited (contract testing)
# Excerpt: as §1
# [34] = molecular target: T34, CDK2/cyclinA(h) (Homo sapiens, UniProt P24941)
# T34 construct: purchased Eurofins Pharma Discovery Services UK Limited (contract assay service)
# Excerpt: as §1
# [35] = molecular target: T35, CSK(h) (Homo sapiens, UniProt P41240)
# T35 construct: purchased Eurofins Pharma Discovery Services UK Limited (contract testing)
# Excerpt: as §1
# [36] = molecular target: T36, JAK2(h) (Homo sapiens, UniProt O60674)
# T36 construct: purchased Eurofins Pharma Discovery Services UK Limited (contract testing)
# Excerpt: as §1
# [37] = molecular target: T37, JNK2α2(h) (Homo sapiens, UniProt P45984)
# T37 construct: purchased Eurofins Pharma Discovery Services UK Limited (contract testing)
# Excerpt: as §1
# [38] = molecular target: T38, Pim-1(h) (Homo sapiens, UniProt P11309)
# T38 construct: purchased Eurofins Pharma Discovery Services UK Limited
# Excerpt: as §1
# [39] = molecular target: T39, Syk(h) (Homo sapiens, UniProt P43405)
# T39 construct: purchased Eurofins Pharma Discovery Services UK Limited
# Excerpt: as §1
# [40] = molecular target: T40, IRAK1(h) (Homo sapiens, UniProt P51617)
# T40 construct: purchased Eurofins Pharma Discovery Services UK Limited (contract testing)
# Excerpt: as §1
# T6 sequence (P51955 whole entry): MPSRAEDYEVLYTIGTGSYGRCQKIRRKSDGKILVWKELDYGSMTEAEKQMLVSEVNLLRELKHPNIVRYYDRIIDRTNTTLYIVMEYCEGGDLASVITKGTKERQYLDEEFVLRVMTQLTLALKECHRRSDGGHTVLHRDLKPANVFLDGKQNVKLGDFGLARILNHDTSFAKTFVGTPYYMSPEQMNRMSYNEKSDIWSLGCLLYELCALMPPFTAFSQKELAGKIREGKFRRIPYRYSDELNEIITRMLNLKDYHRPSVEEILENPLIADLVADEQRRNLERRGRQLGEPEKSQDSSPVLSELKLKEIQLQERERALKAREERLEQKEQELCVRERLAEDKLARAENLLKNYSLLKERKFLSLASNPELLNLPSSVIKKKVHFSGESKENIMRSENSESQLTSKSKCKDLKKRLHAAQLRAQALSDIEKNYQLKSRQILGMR
# T28 sequence (Q05655 whole entry): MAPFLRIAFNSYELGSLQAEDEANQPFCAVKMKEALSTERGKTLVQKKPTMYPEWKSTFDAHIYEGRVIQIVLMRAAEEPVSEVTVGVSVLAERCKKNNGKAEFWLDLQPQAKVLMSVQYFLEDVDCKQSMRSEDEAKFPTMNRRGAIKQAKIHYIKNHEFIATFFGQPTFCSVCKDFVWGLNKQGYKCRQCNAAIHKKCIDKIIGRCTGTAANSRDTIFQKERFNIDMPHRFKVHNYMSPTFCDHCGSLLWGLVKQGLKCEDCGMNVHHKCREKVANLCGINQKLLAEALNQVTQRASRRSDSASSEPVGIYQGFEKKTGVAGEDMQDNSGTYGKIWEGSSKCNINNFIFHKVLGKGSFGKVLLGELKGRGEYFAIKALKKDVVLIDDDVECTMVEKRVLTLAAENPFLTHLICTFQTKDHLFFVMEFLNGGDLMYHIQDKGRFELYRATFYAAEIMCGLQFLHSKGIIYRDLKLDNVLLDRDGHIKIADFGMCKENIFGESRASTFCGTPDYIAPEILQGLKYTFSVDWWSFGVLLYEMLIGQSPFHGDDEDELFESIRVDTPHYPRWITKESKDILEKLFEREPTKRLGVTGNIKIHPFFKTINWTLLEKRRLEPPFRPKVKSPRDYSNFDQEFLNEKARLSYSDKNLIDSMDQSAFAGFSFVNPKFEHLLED
# T22 sequence (Q04759 whole entry): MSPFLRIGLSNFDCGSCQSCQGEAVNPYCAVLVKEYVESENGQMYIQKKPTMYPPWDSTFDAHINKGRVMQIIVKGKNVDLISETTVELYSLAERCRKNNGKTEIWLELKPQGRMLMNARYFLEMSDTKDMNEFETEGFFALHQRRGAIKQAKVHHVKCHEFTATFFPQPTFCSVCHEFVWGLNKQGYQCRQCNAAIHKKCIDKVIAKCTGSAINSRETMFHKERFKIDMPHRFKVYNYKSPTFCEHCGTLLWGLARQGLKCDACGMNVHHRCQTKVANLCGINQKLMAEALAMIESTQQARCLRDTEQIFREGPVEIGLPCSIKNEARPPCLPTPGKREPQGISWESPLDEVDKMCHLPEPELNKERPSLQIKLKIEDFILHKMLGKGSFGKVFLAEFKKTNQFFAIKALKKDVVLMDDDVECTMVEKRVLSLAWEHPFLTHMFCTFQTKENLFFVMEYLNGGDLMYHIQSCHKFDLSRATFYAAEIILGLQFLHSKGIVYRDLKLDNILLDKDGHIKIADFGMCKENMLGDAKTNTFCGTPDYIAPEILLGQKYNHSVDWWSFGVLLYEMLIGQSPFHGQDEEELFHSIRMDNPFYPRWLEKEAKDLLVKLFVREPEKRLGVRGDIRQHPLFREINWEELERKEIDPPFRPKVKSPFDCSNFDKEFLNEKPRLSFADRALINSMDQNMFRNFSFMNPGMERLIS
# T12 sequence (O60331 whole entry): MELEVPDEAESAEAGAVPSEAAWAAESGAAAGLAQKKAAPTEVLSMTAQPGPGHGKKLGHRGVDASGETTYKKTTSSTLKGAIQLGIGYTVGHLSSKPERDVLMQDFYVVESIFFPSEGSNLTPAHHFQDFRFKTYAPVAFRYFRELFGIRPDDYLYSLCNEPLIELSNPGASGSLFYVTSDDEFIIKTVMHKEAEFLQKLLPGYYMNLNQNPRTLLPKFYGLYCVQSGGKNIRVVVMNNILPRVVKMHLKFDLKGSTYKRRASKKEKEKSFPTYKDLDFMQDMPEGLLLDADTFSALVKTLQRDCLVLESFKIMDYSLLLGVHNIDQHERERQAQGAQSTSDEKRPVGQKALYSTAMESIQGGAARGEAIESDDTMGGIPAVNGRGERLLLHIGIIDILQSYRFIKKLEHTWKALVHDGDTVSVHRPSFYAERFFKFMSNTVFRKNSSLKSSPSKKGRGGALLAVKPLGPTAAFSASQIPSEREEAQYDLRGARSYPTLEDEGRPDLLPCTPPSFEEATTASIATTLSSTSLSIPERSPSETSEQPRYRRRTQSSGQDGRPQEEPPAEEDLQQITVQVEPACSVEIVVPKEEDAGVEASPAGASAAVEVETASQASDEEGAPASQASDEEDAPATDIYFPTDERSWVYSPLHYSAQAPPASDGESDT
# T31 sequence (Q8IW41 whole entry): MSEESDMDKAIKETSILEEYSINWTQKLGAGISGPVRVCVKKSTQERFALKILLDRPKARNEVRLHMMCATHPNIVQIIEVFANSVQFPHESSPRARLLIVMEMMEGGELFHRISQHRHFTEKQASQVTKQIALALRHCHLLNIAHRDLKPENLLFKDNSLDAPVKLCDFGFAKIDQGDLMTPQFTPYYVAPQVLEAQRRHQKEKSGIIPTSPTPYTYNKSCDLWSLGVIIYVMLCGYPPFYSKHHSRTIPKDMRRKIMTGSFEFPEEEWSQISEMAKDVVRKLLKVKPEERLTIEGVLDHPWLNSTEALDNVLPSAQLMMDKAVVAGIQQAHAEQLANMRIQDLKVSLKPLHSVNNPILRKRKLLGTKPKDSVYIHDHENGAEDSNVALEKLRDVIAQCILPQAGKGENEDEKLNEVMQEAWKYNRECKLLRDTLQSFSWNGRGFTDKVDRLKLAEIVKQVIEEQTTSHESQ
# T38 sequence (P11309 whole entry): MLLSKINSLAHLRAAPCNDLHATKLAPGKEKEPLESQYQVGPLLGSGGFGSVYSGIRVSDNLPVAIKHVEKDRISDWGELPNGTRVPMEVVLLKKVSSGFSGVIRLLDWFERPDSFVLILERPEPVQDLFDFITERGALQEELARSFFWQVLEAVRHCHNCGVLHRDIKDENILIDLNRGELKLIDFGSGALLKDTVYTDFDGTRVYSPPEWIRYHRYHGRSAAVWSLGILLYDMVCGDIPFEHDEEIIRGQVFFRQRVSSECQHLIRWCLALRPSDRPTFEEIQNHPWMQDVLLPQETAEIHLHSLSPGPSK
# T16 sequence (P41743 whole entry): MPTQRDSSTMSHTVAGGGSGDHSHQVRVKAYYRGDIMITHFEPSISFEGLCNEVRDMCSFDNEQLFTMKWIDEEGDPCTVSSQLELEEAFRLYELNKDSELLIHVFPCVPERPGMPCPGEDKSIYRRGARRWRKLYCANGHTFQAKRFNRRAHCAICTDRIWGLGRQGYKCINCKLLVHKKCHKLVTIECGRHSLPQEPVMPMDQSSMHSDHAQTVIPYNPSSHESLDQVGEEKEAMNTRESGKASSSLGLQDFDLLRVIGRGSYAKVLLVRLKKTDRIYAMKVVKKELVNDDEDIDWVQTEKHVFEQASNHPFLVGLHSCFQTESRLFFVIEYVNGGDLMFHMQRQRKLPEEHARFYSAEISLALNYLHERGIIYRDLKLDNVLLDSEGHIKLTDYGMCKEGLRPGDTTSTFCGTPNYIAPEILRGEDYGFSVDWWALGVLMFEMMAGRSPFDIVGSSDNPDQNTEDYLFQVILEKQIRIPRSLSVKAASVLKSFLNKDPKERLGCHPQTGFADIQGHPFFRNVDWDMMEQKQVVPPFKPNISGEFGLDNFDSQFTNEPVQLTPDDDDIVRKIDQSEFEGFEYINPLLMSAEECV
# T35 sequence (P41240 whole entry): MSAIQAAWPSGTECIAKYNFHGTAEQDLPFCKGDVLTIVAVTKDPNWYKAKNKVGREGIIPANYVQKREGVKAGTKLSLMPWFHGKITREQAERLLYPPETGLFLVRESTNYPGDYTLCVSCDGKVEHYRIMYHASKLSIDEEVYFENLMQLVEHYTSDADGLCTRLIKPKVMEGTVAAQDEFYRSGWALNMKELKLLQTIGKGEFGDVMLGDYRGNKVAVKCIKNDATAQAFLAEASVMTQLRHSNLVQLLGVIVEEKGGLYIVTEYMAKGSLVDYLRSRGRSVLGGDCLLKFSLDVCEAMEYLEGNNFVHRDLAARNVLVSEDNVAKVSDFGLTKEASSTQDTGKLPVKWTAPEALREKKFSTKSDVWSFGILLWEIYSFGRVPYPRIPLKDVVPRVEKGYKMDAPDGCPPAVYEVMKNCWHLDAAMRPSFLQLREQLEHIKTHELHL
# T19 sequence (P06241 whole entry): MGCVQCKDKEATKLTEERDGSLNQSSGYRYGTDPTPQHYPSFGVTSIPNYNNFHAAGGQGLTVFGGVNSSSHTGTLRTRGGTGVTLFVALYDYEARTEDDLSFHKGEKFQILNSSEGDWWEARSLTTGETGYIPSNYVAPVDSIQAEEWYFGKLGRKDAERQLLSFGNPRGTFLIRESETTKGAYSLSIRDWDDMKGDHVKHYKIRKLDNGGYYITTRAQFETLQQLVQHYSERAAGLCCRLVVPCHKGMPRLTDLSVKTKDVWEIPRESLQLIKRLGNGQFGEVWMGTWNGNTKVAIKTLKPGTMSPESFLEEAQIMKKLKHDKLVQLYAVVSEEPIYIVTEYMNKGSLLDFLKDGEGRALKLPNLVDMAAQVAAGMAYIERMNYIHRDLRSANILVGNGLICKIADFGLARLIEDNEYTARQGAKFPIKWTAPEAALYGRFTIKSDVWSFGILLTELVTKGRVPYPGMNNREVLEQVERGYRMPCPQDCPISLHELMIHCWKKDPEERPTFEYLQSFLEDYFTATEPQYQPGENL
structure (smiles),measurement,setting,value
C=C(C)n1c(=O)n(C(C)=O)c2ncc(Br)cc21 [FD162],inhibition at 10 µM,[1],-2%
same,inhibition at 10 µM,[2],2%
same,inhibition at 10 µM,[3],1%
same,inhibition at 10 µM,[4],7%
same,inhibition at 10 µM,[5],33%
same,inhibition at 10 µM,[6],-6%
same,inhibition at 10 µM,[7],6%
same,inhibition at 10 µM,[8],-14%
same,inhibition at 10 µM,[9],-2%
same,inhibition at 10 µM,[10],-13%
same,inhibition at 10 µM,[11],4%
same,inhibition at 10 µM,[12],-1%
same,inhibition at 10 µM,[13],-5%
same,inhibition at 10 µM,[14],4%
same,inhibition at 10 µM,[15],5%
same,inhibition at 10 µM,[16],11%
same,inhibition at 10 µM,[17],-1%
same,inhibition at 10 µM,[18],2%
same,inhibition at 10 µM,[19],2%
same,inhibition at 10 µM,[20],-4%
same,inhibition at 10 µM,[21],3%
same,inhibition at 10 µM,[22],-3%
same,inhibition at 10 µM,[23],15%
same,inhibition at 10 µM,[24],9%
same,inhibition at 10 µM,[25],1%
same,inhibition at 10 µM,[26],-9%
same,inhibition at 10 µM,[27],1%
same,inhibition at 10 µM,[28],18%
same,inhibition at 10 µM,[29],-14%
same,inhibition at 10 µM,[30],4%
same,inhibition at 10 µM,[31],10%
same,inhibition at 10 µM,[32],1%
same,inhibition at 10 µM,[33],-8%
same,inhibition at 10 µM,[34],-2%
same,inhibition at 10 µM,[35],-12%
same,inhibition at 10 µM,[36],7%
same,inhibition at 10 µM,[37],3%
same,inhibition at 10 µM,[38],3%
same,inhibition at 10 µM,[39],0%
same,inhibition at 10 µM,[40],9%

# From patent US9738612B2, “Methylacryloyl benzimidazolone derivative and anti-tumour use thereof” (SHANGHAI NATURE STANDARD R&D AND BIOTECH CO., LTD, priority 2014, dated 2017)
